Test results as given in patent publication US12162867B2, “Inhibitors of RNA helicase DHX9 and uses thereof” (ACCENT THERAPEUTICS, INC., priority 2022, dated 2024).
Like-named read-outs stand apart in the source and are kept apart here.

Tested on: circBRIP1 in HCT116 cells
Experiment: DHX9 circBRIP1 cellular target engagement SYBR Green assay (qPCR)
Assay type: cell-based
Conditions: Homo sapiens
[1] = HCT-116, circBRIP1, HCT116 cells, SyBr assay (marked ^+), read-out: DHX9 Cellular Target Engagement EC50

Row | Structure (SMILES) | EC50 [1] | EC50 (HCT-116, read-out: DHX9 Cellular Target Engagement EC50)
1 | CS(=O)(=O)Nc1cc(Cl)cc(NC(=O)c2cnn([C@@H]3CCCC[C@@H]3O)c2)c1 (relative stereo) [Example 153, N-(3-chloro-5-(methylsulfonamido)phenyl)-1-(2-cis-hydroxycyclohexyl)-1H-pyrazole-4-carboxamide] | 6.11 µM | 
2 | CS(=O)(=O)Nc1cc(Cl)cc(NC(=O)c2cnn([C@H]3CCC[C@H](O)C3)c2)c1 (single isomer, unassigned) [Example 152a] | > 10 µM | 
3 | CS(=O)(=O)Nc1cc(Cl)cc(NC(=O)c2cnn([C@H]3CC[C@H](O)CC3)c2)c1 (single isomer, unassigned) [Example 154] | > 10 µM | 
4 | CS(=O)(=O)Nc1cc(Cl)cc(NC(=O)c2cnn([C@@H]3CC[C@H]3O)c2)c1 (single isomer, unassigned) [Example 306a] | > 10 µM | 
5 | CS(=O)(=O)Nc1cc(Cl)cc(NC(=O)c2cnn([C@H]3CC[C@H]3O)c2)c1 (single isomer, unassigned) [Example 306b] | > 10 µM | 
6 | CS(=O)(=O)Nc1cc(Cl)cc(NC(=O)c2cn(-c3ccccc3)cn2)c1 [Example 1, N-(3-chloro-5-(methylsulfonamido)phenyl)-1-phenyl-1H-imidazole-4-carboxamide] | 16.4 µM | 
7 | CS(=O)(=O)Nc1cc(F)cc(NC(=O)c2c[nH]c(Br)c2)c1 [Example 2] | > 30 µM | 
8 | Cc1cc(C(=O)Nc2cc(F)cc(NS(C)(=O)=O)c2)c[nH]1 [Example 5] | > 30 µM | 
9 | CS(=O)(=O)Nc1cc(Cl)cc(NC(=O)c2c[nH]c(-c3ccccc3)n2)c1 [Example 6] | 9.34 µM | 
10 | CS(=O)(=O)Nc1cc(Cl)cc(NC(=O)c2cc(-c3ccccc3)co2)c1 [Example 7] | 24.2 µM | 
11 | CS(=O)(=O)Nc1cc(Cl)cc(NC(=O)c2cc(-c3ccccc3)c[nH]2)c1 [Example 8] | 5.52 µM | 
12 | CS(=O)(=O)Nc1cc(Cl)cc(NC(=O)c2nc(-c3ccccc3)c[nH]2)c1 [Example 9] | 30 µM | 
13 | Cc1ccc(C(=O)Nc2cc(Br)cc(NS(C)(=O)=O)c2)cc1-n1cccn1 [Example 10] | 12.3 µM | 
14 | Cc1sc(C(=O)Nc2cc(Cl)cc(NS(C)(=O)=O)c2)cc1-c1ccccc1 [Example 11] | 0.851 µM | 
15 | CS(=O)(=O)Nc1cc(Cl)cc(NC(=O)c2cccc(-c3cccc(C#N)c3)c2)c1 [Example 13] | 7.97 µM | 
16 | CS(=O)(=O)Nc1cc(I)cc(NC(=O)c2cc(-c3ccccc3)cs2)c1 [Example 16] | 3.51 µM | 
17 | CS(=O)(=O)Nc1cc(Br)cc(NC(=O)c2cc(-c3ccccc3OCc3ccccc3)cs2)c1 [Example 30] | 0.687 µM | 
18 | CS(=O)(=O)Nc1cc(Br)cc(NC(=O)c2cnn(-c3cc(C#N)ccn3)c2)c1 [Example 38] | 0.933 µM | 
19 | CS(=O)(=O)Nc1cc(Br)cc(NC(=O)c2cnn(-c3ccc(F)cn3)c2)c1 [Example 39] | 0.884 µM | 
20 | CS(=O)(=O)Nc1cc(Br)cc(NC(=O)c2cnn(-c3cnccn3)c2)c1 [Example 40] | 1.15 µM | 
21 | CS(=O)(=O)Nc1cc(Br)cc(NC(=O)c2cnn(-c3ccc(C#N)cn3)c2)c1 [Example 41] | 4.34 µM | 
22 | CS(=O)(=O)Nc1cc(Br)cc(NC(=O)c2cnn(-c3ccc(C(F)(F)F)cn3)c2)c1 [Example 43] | 4.71 µM | 
23 | Cc1cccc(C#N)c1-n1cc(C(=O)Nc2cc(Br)cc(NS(C)(=O)=O)c2)cn1 [Example 44] | 4.19 µM | 
24 | Cc1cccnc1-n1cc(C(=O)Nc2cc(Br)cc(NS(C)(=O)=O)c2)cc1C [Example 45] | 0.563 µM | 
25 | CS(=O)(=O)Nc1cc(Cl)cc(NC(=O)c2cnn(-c3ncccc3C#N)c2)c1 [Example 46] | 2.25 µM | 

Row | Structure (SMILES) | EC50 [1] | EC50 (HCT-116, read-out: DHX9 Cellular Target Engagement EC50)
26 | CS(=O)(=O)Nc1cc(Cl)cc(NC(=O)c2cnn(-c3ncccc3C(F)(F)F)c2)c1 [Example 47] | 6.73 µM | 
27 | CS(=O)(=O)Nc1cc(Br)cc(NC(=O)c2cnn(C3CCCCC3)c2)c1 [Example 48] | 1.41 µM | 
28 | CS(=O)(=O)Nc1cc(Br)cc(NC(=O)c2cnn(-c3ncccn3)c2)c1 [Example 50, N-(3-bromo-5-(methylsulfonamido)phenyl)-1-(pyrimidin-2-yl)-1H-pyrazole-4-carboxamide] | 0.895 µM | 
29 | CS(=O)(=O)Nc1cc(Br)cc(NC(=O)c2cnn(-c3cccc(C#N)c3)c2)c1 [Example 52] | 3.01 µM | 
30 | Cc1ccc(C#N)cc1-n1cc(C(=O)Nc2cc(Br)cc(NS(C)(=O)=O)c2)cn1 [Example 53] | 4.95 µM | 
31 | Cc1cccnc1-n1cc(C(=O)Nc2cc(Cl)cc(NS(C)(=O)=O)c2)cn1 [Example 54] | 0.953 µM | 
32 | CS(=O)(=O)Nc1cc(Br)cc(NC(=O)c2cnn(-c3cccc(C(F)F)n3)c2)c1 [Example 56] | 7.43 µM | 
33 | CS(=O)(=O)Nc1cc(Br)cc(NC(=O)c2cnn(-c3ccccc3C=O)c2)c1 [Example 58] | 1.41 µM | 
34 | CS(=O)(=O)Nc1cc(Br)cc(NC(=O)c2cc(-n3cccn3)cs2)c1 [Example 60] | 0.201 µM | 
35 | CC(Oc1cccnc1-n1cc(C(=O)Nc2cc(Cl)cc(NS(C)(=O)=O)c2)cn1)c1ccccc1 (stereo not shown) [Example 62] | 6.8 µM | 
36 | CS(=O)(=O)Nc1cc(Cl)cc(NC(=O)c2cnn(-c3ncccc3OCc3ccccn3)c2)c1 [Example 63] | 2.43 µM | 
37 | CS(=O)(=O)Nc1cc(Cl)cc(NC(=O)c2cnn(-c3ncccc3OCc3ccncc3)c2)c1 [Example 64] | 5.64 µM | 
38 | CS(=O)(=O)Nc1cc(Cl)cc(NC(=O)c2cnn(-c3ncccc3OCc3cnco3)c2)c1 [Example 66] | 4.87 µM | 
39 | CS(=O)(=O)Nc1cc(Cl)cc(NC(=O)c2cnn(-c3ncccc3OCc3ccccc3)c2)c1 [Example 68] | 0.278 µM | 
40 | CS(=O)(=O)Nc1cc(Cl)cc(NC(=O)c2cnn(-c3ncccc3OCc3ccc(F)cc3)c2)c1 [Example 69] | 0.661 µM | 
41 | CS(=O)(=O)Nc1cc(F)cc(NC(=O)c2cc(Br)cs2)c1 [Example 71, 4-bromo-N-(3-fluoro-5-(methylsulfonamido)phenyl)thiophene-2-carboxamide] |  | 26.3 µM
42 | CS(=O)(=O)Nc1cc(F)cc(NC(=O)c2cc(-c3ccccc3)cs2)c1 [Example 73] | 11.2 µM | 
43 | CCS(=O)(=O)Nc1cc(F)cc(NC(=O)c2cc(-c3ccccc3)cs2)c1 [Example 74] | 8.32 µM | 
44 | CS(=O)(=O)Nc1cc(Cl)cc(NC(=O)c2cc(-c3ccccc3)cs2)c1 [Example 75] | 1.64 µM | 
45 | CS(=O)(=O)Nc1cc(Br)cc(NC(=O)c2cc(-c3cccnc3)cs2)c1 [Example 78] | 0.457 µM | 
46 | CCn1cc(C(=O)Nc2cc(Cl)cc(NS(C)(=O)=O)c2)cc1-c1ccccc1 [Example 79, N-(3-chloro-5-(methylsulfonamido)phenyl)-1-ethyl-5-phenyl-1H-pyrrole-3-carboxamide] | 1.12 µM | 
47 | CS(=O)(=O)Nc1cc(Cl)cc(NC(=O)c2cc(-c3ccccc3)n(CC(F)(F)F)c2)c1 [Example 80] | 3.09 µM | 
48 | Cn1cc(C(=O)Nc2cc(Cl)cc(NS(C)(=O)=O)c2)cc1Br [Example 83, 5-bromo-N-(3-chloro-5-(methylsulfonamido)phenyl)-1-methyl-1H-pyrrole-3-carboxamide] | 0.911 µM | 
49 | Cc1cc(C(=O)Nc2cc(Br)cc(NS(C)(=O)=O)c2)cn1C1CCCCC1 [Example 85, N-(3-bromo-5-(methylsulfonamido)phenyl)-1-cyclohexyl-5-methyl-1H-pyrrole-3-carboxamide] | 2.76 µM | 
